In one experiment the test system is C2C12 myoblasts. Kind of experiment: ALP staining for transdifferentiation of C2C12 myoblasts to osteoblasts. Conditions: absence of BMP-2, seven days after transfection. Format: cell-based, mouse.
Experiment [1] has as its system human insulin gene. Description: Insulin gene expression in stably transfected 293 cells (DNA microarray). Type of experiment: cell-based. The settings on record: stably transfected human 293 cells. The source says: We stably transfected nucleic acids encoding chimeric zinc finger proteins in human 293 cell lines, and analyzed transformed cells using DNA microarray experiments to characterize genes regulated by each chimeric zinc finger protein (see FIGS. 4, 5, and 9). We have identified a chimeric zinc finger protein (08_D04-p65) that increases the expression of human insulin gene more than 60 fold.
Nucleic acids encoding zinc finger proteins were stably introduced into FlpTRex-293 cell lines (Invitrogen) essentially as described in the manufacturer's protocols. Briefly, the HindIII-XhoI fragment from the pLFD-p65 or pLFD-Kid vectors was subcloned into pcDNA5/FRT/TO (Invitrogen Calif.). This fragment includes a sequence encoding the zinc finger proteins. Resulting plasmids were cotransfected into FlpTRex-293 cells with pOG44 (Invitrogen). Stable integrants that express ZFP-TFs upon doxycycline induction were obtained.
DNA microarrays containing 7458 human EST clones were obtained from Genomictree (Korea). FlpTRex-293 cells stably expressing ZFP-TFs were grown with (+Dox) or without Dox) 1 μg/ml Doxycycline for 48 hours. Total RNA was prepared from each sample. RNA from the −Dox sample was used as a reference (Cy3), and +Dox as the experimental sample (Cy5). […] Spots with sum of median less than 500 were colored red and not analyzed.

Experiment [2] concerns human insulin gene. Kind of experiment: Insulin gene expression in transiently transfected HeLa cells. Format: cell-based. From the text:
To test whether 08_D04-p65 can induce insulin gene expression in different human cell lines, we transiently transfected a nucleic acid encoding 08_D04-p65 into HeLa cells. Expression of the nucleic acid in HeLa cells caused a 80 fold increase in expression of the insulin gene.
Nucleic acids encoding certain zinc finger proteins were also expressed in HeLa cells. pLFD-p65 containing 08-D04 ZFP was transiently transfected into HeLa cells using LIPOFECTAMINE™ 2000 (Invitrogen).

Source text for C2C12 myoblasts: We screened for chimeric zinc finger proteins that induce transdifferentiation of C2C12 myoblasts to osteoblasts in the absence of BMP-2. We transiently transfected a nucleic acid library encoding chimeric zinc finger proteins into C2C12 cells and screened for cells that undergo transdifferentiation in the absence of BMP-2. Seven days after transfection, the transformed cells were stained for alkaline phosphatase (ALP), a marker for osteoblasts (Katagiri, T. et al., (1994) J. Cell. Biol. 127:1755).
For these experiments, the mouse myoblast cell line, C2C12, was maintained in Dulbecco's Modified Eagle's Medium (DMEM) with 4.5 g/L glucose, 10% FBS, and antibiotics, at 37° C., in a humidified atmosphere containing 95% air and 5% CO2. Cells were seeded at 1.0·10^4 cells per 96-well culture plates. […] Twenty-four hours after transfection, the growth medium was replaced with DMEM containing 2% FBS, and the cells were cultured for an additional six days.
To examine the differentiation of C2C12 cells to osteoblasts, ALP staining was performed as described in Katagiri, T. et al., (1994) J. Cell.

For “Osteo1-p65: four-finger ZFP RDKR-QTHR1-VSTR-RDKR with p65 activation domain (SEQ ID NO:4)”, the “cells with strong ALP staining” value in the experiment with C2C12 myoblasts is given as “about 30%”. Turning to “08_D04-p65: ZFP RSHR-RDHT-VSSR with p65 activation domain (SEQ ID NO:6)”, in the experiment on human insulin gene [1], the “increase in expression of human insulin gene” value is recorded as “more than 60 fold”. The “increase in expression of the insulin gene” value in the experiment with human insulin gene [2] turned out to be 80 fold.

These data come from US7514257B2, “Zinc finger transcription factor differentiation proteins” (ToolGen, Inc., priority 2001, dated 2009).
